{
  "source": "patent US10881642B2",
  "about": "“Autophagy enhancer and use thereof” (Industry-Academic Cooperation Foundation, Yonsei University, priority 2016, dated 2021)",
  "tested_on": "HeLa cells",
  "assay": "Viability of Hela cells",
  "format": "cell-based",
  "conditions": "50-100 μM, 48 hrs",
  "procedure": "FIG. 10 is the result of the experiments using compound of formula 2 (hereinafter referred to as MSL-7) of the present disclosure as an autophagic enhancer. FIG. 10A is the result of immuneblot using the antibodies indicated using Hela cells treated with MSL or MSL-7. FIG. 10B is the result of measuring the viability of Hela cells treated with vehicle control or various concentration of MSL-7 (50-100 μM) for 48 hrs. FIG. 10C is the result of DAPI stained nuclei of TFEB-GFP HeLa cells which were treated with vehicle control or MSL-7 for 4 hrs. The graph indicates the percentage of TFEB translocated into the nuclei. Error bars, S.D. *, P<0.05; **, P<0.01; ***, P<0.001.\nScreening of autophagy enhancer. […] Firefly luciferase was determined after mixing 5 μl of lysate with 25 μl of Luciferase Assay Reagent II. Renilla luciferase was then determined after further addition of 20 ul of Stop&Glo Reagent. […] Cytotoxicity was determined by the measurement of LDH release in cell culture media using the LDH kit (Roche), according to the protocol from the manufacturer. […] Imaging and image quantification. […] Formation of acidic vesicular organelles was quantitated by staining the cells with acridine orange (Invitrogen, 5 ug/ml, 10 min). […] Cells or tissues were solubilized in lysis buffer supplemented with protease and phosphatase inhibitors and protein concentration was measured by the Bradford method. […]",
  "data": [
    {"smiles": "COc1oc(-c2ccccc2Cl)nc1S(=O)(=O)c1ccccc1", "note": "[MSL-7, 2-(2-chlorophenyl)-5-methoxy-4-(phenylsulfonyl) oxazole]", "values": [
      {"measurement": "cellular toxicity", "result": "without cellular toxicity"}
    ]}
  ]
}
